Structure (SMILES)	melting point [°C]
CSc1ccc(-c2n[nH]c(=O)cc2-c2ccc(F)cc2)cc1 [Example 9, 5-(4-fluorophenyl)-6-[4-(methylthio)phenyl]-2H-pyridazin-3-one]	197.4 to 198.2
COc1ccc(-c2cc(=O)n(CCCOc3ccccc3)nc2-c2ccc(OC)cc2)cc1 [Example 20, 5,6-bis(4-methoxyphenyl)-2-[3-(phenoxy)propyl]-2H-pyridazin-3-one]	110 to 111
COc1ccc(-c2cc(=O)n(Cc3ccc(Cl)cc3)nc2-c2ccc(OC)cc2)cc1 [Example 33, 5,6-bis(4-methoxyphenyl)-2-(4-chlorobenzyl)-2H-pyridazin-3-one]	124.2 to 127.3
COC(=O)c1ccc(Cn2nc(-c3ccc(OC)cc3)c(-c3ccc(OC)cc3)cc2=O)cc1 [Example 42, 5,6-bis(4-methoxyphenyl)-2-(4-methoxycarbonylbenzyl)-2H-pyridazin-3-one]	185.5 to 186.6
COc1ccc(-c2cc(=O)n(Cc3ccccn3)nc2-c2ccc(OC)cc2)cc1 [Example 43, 5,6-bis(4-methoxyphenyl)-2-(2-pyridylmethyl)-2H-pyridazin-3-one]	116 to 117
COc1ccc(-c2cc(=O)n(Cc3ccncc3)nc2-c2ccc(OC)cc2)cc1 [Example 45, 5,6-bis(4-methoxyphenyl)-2-(4-pyridylmethyl)-2H-pyridazin-3-one]	182.1 to 183.1
COc1ccc(-c2nn(Cc3ccccc3)c(=O)cc2-c2ccc(Cl)cc2)cc1 [Example 49, 5-(4-chlorophenyl)-6-(4-methoxyphenyl)-2-benzyl-2H-pyridazin-3-one]	165 to 167
COc1ccc(-c2nn(Cc3ccncc3)c(=O)cc2-c2ccc(Cl)cc2)cc1 [Example 50, 5-(4-chlorophenyl)-6-(4-methoxyphenyl)-2-(4-pyridylmethyl)-2H-pyridazin-3-one]	142 to 143
CSc1ccc(-c2nn(Cc3ccc(F)cc3F)c(=O)cc2-c2ccc(Cl)cc2)cc1 [Example 53, 5-(4-chlorophenyl)-6-[4-(methylthio)phenyl]-2-(2,4-difluorobenzyl)-2H-pyridazin-3-one]	157.4 to 157.5
CSc1ccc(-c2nn(Cc3ccc(Cl)cc3Cl)c(=O)cc2-c2ccc(Cl)cc2)cc1 [Example 54, 5-(4-chlorophenyl)-6-[4-(methylthio)phenyl]-2-(2,4-dichlorobenzyl)-2H-pyridazin-3-one]	154.5 to 155
CSc1ccc(-c2nn(CC=Cc3ccccc3)c(=O)cc2-c2ccc(Cl)cc2)cc1 [Example 56, 5-(4-chlorophenyl)-6-[4-(methylthio)phenyl]-2-cinnamyl-2H-pyridazin-3-one]	109.3 to 110.2
COc1ccc(Cn2nc(-c3ccc(SC)cc3)c(-c3ccc(F)cc3)cc2=O)cc1 [Example 62, 5-(4-fluorophenyl)-6-[4-(methylthio)phenyl]-2-(4-methoxybenzyl)-2H-pyridazin-3-one]	165.3 to 165.7
CSc1ccc(Cn2nc(-c3ccc(SC)cc3)c(-c3ccc(F)cc3)cc2=O)cc1 [Example 63, 5-(4-fluorophenyl)-6-[4-(methylthio)phenyl]-2-[4-(methylthio)benzyl]-2H-pyridazin-3-one]	116 to 116.1
CSc1ccc(-c2nn(Cc3cccnc3)c(=O)cc2-c2ccc(F)cc2)cc1 [Example 67, 5-(4-fluorophenyl)-6-[4-(methylthio)phenyl]-2-(3-pyridylmethyl)-2H-pyridazin-3-one]	159.8 to 160.7
CSc1ccc(-c2nn(Cc3ccccc3)c(=O)cc2-c2ccccc2)cc1 [Example 71, 2-benzyl-6-[4-(methylthio)phenyl]-5-phenyl-2H-pyridazin-3-one]	157.3 to 158.4
C[S+]([O-])c1ccc(-c2nn(Cc3ccccc3)c(=O)cc2-c2ccc(Cl)cc2)cc1 (stereo not drawn) [Example 85, 2-benzyl-5-(4-chlorophenyl)-6-[4-(methylsulfinyl)phenyl]-2H-pyridazin-3-one]	143.7 to 144.7
C[S+]([O-])c1ccc(-c2nn(CC3CC3)c(=O)cc2-c2ccc(Cl)cc2)cc1 (stereo not drawn) [Example 86, 5-(4-chlorophenyl)-2-cyclopropylmethyl-6-[4-(methylsulfinyl)phenyl]-2H-pyridazin-3-one]	152.2 to 152.3
C[S+]([O-])c1ccc(-c2nn(CC3CC3)c(=O)cc2-c2ccc(F)cc2)cc1 (stereo not drawn) [Example 87, 2-cyclopropylmethyl-5-(4-fluorophenyl)-6-[4-(methylsulfinyl)phenyl]-2H-pyridazin-3-one]	133.3 to 133.5
COc1ccc(Cn2nc(-c3ccc([S+](C)[O-])cc3)c(-c3ccc(F)cc3)cc2=O)cc1 (stereo not drawn) [Example 89, 5-(4-fluorophenyl)-2-(4-methoxybenzyl)-6-[4-(methylsulfinyl)phenyl]-2H-pyridazin-3-one]	81.3 to 81.5
C[S+]([O-])c1ccc(-c2nn(Cc3ccc(F)cc3F)c(=O)cc2-c2ccc(Cl)cc2)cc1 (stereo not drawn) [Example 91, 2-(2,4-difluorobenzyl)-5-(4-chlorophenyl)-6-[4-(methylsulfinyl)phenyl]-2H-pyridazin-3-one]	155.6 to 155.7

Structure (SMILES)	melting point [°C]
C[S+]([O-])c1ccc(-c2nn(Cc3ccc(Cl)cc3Cl)c(=O)cc2-c2ccc(Cl)cc2)cc1 (stereo not drawn) [Example 92, 5-(4-chlorophenyl)-2-(2,4-dichlorobenzyl)-6-[4-(methylsulfinyl)phenyl]-2H-pyridazin-3-one]	236.5 to 237.3
CS(=O)(=O)c1ccc(-c2nn(Cc3ccccc3)c(=O)cc2-c2ccc(Cl)cc2)cc1 [Example 97, 2-benzyl-5-(4-chlorophenyl)-6-[4-(methylsulfonyl)phenyl]-2H-pyridazin-3-one]	103.2 to 105.7
CS(=O)(=O)c1ccc(-c2n[nH]c(=O)cc2-c2ccc(Cl)cc2)cc1 [Example 98, 5-(4-chlorophenyl)-6-[4-(methylsulfonyl)phenyl]-2H-pyridazin-3-one]	254 to 254.7
CS(=O)(=O)c1ccc(-c2nn(CC3CC3)c(=O)cc2-c2ccc(Cl)cc2)cc1 [Example 99, 5-(4-chlorophenyl)-2-cyclopropylmethyl-6-[4-(methylsulfonyl)phenyl]-2H-pyridazin-3-one]	139.7 to 139.8
CS(=O)(=O)c1ccc(-c2nn(CC3CC3)c(=O)cc2-c2ccc(F)cc2)cc1 [Example 100, 2-cyclopropylmethyl-5-(4-fluorophenyl)-6-[4-(methylsulfonyl)phenyl]-2H-pyridazin-3-one]	123.8 to 123.9
CS(=O)(=O)c1ccc(-c2nn(Cc3ccc(F)cc3F)c(=O)cc2-c2ccc(Cl)cc2)cc1 [Example 103, 2-(2,4-difluorobenzyl)-5-(4-chlorophenyl)-6-[4-(methylsulfonyl)phenyl]-2H-pyridazin-3-one]	173.8 to 173.9
CS(=O)(=O)c1ccc(-c2nn(Cc3ccc(Cl)cc3Cl)c(=O)cc2-c2ccc(Cl)cc2)cc1 [Example 104, 5-(4-chlorophenyl)-2-(2,4-dichlorobenzyl)-6-[4-(methylsulfonyl)phenyl]-2H-pyridazin-3-one]	232.7 to 234.5
CS(=O)(=O)c1ccc(-c2nn(Cc3cccnc3)c(=O)cc2-c2ccc(Cl)cc2)cc1 [Example 106, 5-(4-chlorophenyl)-6-[4-(methylsulfonyl)phenyl]-2-(3-pyridylmethyl)-2H-pyridazin-3-one]	248 to 248.1
CS(=O)(=O)c1ccc(-c2nn(Cc3ccncc3)c(=O)cc2-c2ccc(F)cc2)cc1 [Example 107, 5-(4-fluorophenyl)-6-[4-(methylsulfonyl)phenyl]-2-(4-pyridylmethyl)-2H-pyridazin-3-one]	253.3 to 254.5
CS(=O)(=O)c1ccc(-c2nn(CCCc3ccccc3)c(=O)cc2-c2ccc(Cl)cc2)cc1 [Example 108, 5-(4-chlorophenyl)-6-[4-(methylsulfonyl)phenyl]-2-(3-phenylpropyl)-2H-pyridazin-3-one]	70.2 to 71.6
CS(=O)(=O)c1ccc(-c2nn(Cc3ccccc3)c(=O)cc2-c2ccccc2)cc1 [Example 109, 2-benzyl-6-[4-(methylsulfonyl)phenyl]-5-phenyl-2H-pyridazin-3-one]	211 to 212
COc1ccc(-c2cc(=O)n(Cc3ccc(C(=O)O)cc3)nc2-c2ccc(OC)cc2)cc1 [Example 112, 5,6-bis(4-methoxyphenyl)-2-(4-carboxybenzyl)-2H-pyridazin-3-one]	241 to 242
COc1ccc(-c2cc(=O)n(CCC(=O)NCc3ccccc3)nc2-c2ccc(OC)cc2)cc1 [Example 115, 5,6-bis(4-methoxyphenyl)-2-[2-(benzylaminocarbonyl)ethyl]-2H-pyridazin-3-one]	135 to 137
CSc1ccc(C2=NN(Cc3ccccc3)C(=O)CC2c2ccc(Cl)cc2)cc1 (stereo not drawn) [Example 121, 2-benzyl-5-(4-chlorophenyl)-4,5-dihydro-6-[4-(methylthio)phenyl]-2H-pyridazin-3-one]	113.5 to 113.9
CSc1ccc(-c2nn(Cc3ccc(F)cc3F)c(=S)cc2-c2ccc(Cl)cc2)cc1 [Example 133, 5-(4-chlorophenyl)-2-(2,4-difluorobenzyl)-6-[4-(methylthio)phenyl]-2H-pyridazine-3-thione]	176.5 to 176.6
CSc1ccc(-c2n[nH]c(=S)cc2-c2ccc(F)cc2)cc1 [Example 136, 5-(4-fluorophenyl)-6-[4-(methylthio)phenyl]-2H-pyridazine-3-thione]	218.7 to 218.9
CSc1ccc(-c2nn(Cc3ccccc3)c(=S)cc2-c2ccc(F)cc2)cc1 [Example 138, 2-benzyl-5-(4-fluorophenyl)-6-[4-(methylthio)phenyl]-2H-pyridazine-3-thione]	108.1 to 108.2
CS(=O)(=O)c1ccc(-c2nn(Cc3ccccc3)c(=S)cc2-c2ccc(F)cc2)cc1 [Example 139, 2-benzyl-5-(4-fluorophenyl)-6-[4-(methylsulfonyl)phenyl]-2H-pyridazine-3-thione]	181.8 to 182
COc1ccc(Cn2nc(-c3ccc(SC)cc3)c(-c3ccc(F)cc3)cc2=S)cc1 [Example 140, 5-(4-fluorophenyl)-2-(4-methoxybenzyl)-6-(4-(methylthio)phenyl]-2H-pyridazine-3-thione]	112.7 to 112.9
